Literature values as cited in patent US20150051382A1 (CARDIOPEP PHARMA GMBH, priority 2010, published 2015).

How the values were obtained:
[1] = system: dogs
[2] = system: patients with chronic congestive heart failure; conditions: 15 ng/kg/min, 10-hour infusion
[3] = system: patients with moderate asthma affliction; conditions: brief infusion; healthy and diseased subjects
[4] = system: patients with chronic congestive heart failure

Substance: urodilatin
- effect as compared to other natriuretic peptides, such as ANP [1]: better effect
- central venous pressure (CVP) ([2]; after 5 hours of infusion): increases slightly
- urine flow ([2]; after 8 hours of infusion): loss of action
- effect on bronchoconstriction [3]: temporary biological effect
- changes of the baseline in pulmonary capillary wedge pressure (PCWP) ([4]; 15+30 ng/kg/min, compared with the placebo group): significant reductions
- changes of the cardiac index (CI) ([4]; 15 and 30 ng/kg/min): significant increase
- cardiac index (CI), reversal of effect ([4]; after 6 to 8 hours of infusion): partial drop of CI
- pulmonary capillary wedge pressure (PCWP), reversal of effect ([4]; after 6 to 8 hours of infusion): slight increase of PCWP
- symptoms, morbidity and mortality ([4]; all doses): significantly improved
- acute survival rate and hospital dwelling time ([4]; human, in vivo): significantly and relevantly influenced
